Experimental findings from patent publication US10973912B2, “Treatment for myopathy” (Children's Medical Center Corporation, priority 2015, dated 2021) are described below.

Experiment [1] relates to ryr1b homozygous mutant zebrafish. In words: Secondary screen of individual chemicals in ryr1b zebrafish (vitality: survival and touch-evoked escape behavior). Type of experiment: in vivo, zebrafish (Danio rerio). The arrangement: key: vitality score, theoretical range 0–60; DMSO controls expected ~50. The settings on record: 2.0 μg/mL from 1 dpf, scored at 5 dpf; average of two replicates of 20 larvae from heterozygous ryr1b matings; score=(#Dead*0)+(#ryr1b*1)+(#Moderate*2)+(#Wild-type*3), max 60, expected 50 in DMSO controls. How it is done: Each scored compound represents an average of two replicates, consisting of 20 larvae from heterozygous ryr1b matings (n=40). Larvae obtained from wild-type AB matings served as positive controls. […] Significance was determined by pairwise comparisons between control and experimental pools using a Student's t-test. Vitality score=(#Dead*0)+(#ryr1b*1)+(#Moderate*2)+(#Wild-type*3). Standard deviations shown for positive and negative controls were calculated based on results from 5 and 21 independent experiments, respectively.
Primary screen. For the primary screen, twenty embryos (1 dpf) resulting from a mating of heterozygous ryr1b zebrafish were manually sorted into 48-well plates containing 250 μL embryo 1×E3 medium (5.0 mM NaCl, 0.17 mM KCl, 0.33 mM CaCl2*2H2O, 0.33 mM MgSO4*7H2O) and four pooled chemicals from the Prestwick2 chemical library. Each chemical pool was assayed in duplicate using embryos from two independent clutches, for a total of 24 distinct pools tested per plate (FIG. 1). The chemicals were dissolved to a final concentration of 2.0 μg/mL and 0.4% DMSO, which is similar to concentrations other groups have used in zebrafish studies^37,38. As a negative control, twenty embryos from each clutch were cultured without chemicals in vehicle only (0.4% DMSO) (FIG. 1). Larvae obtained from wild-type (Oregon AB) matings served as positive controls in separate plates. All plates containing embryos were incubated at 28.5° C. and maintained as initially treated for 5 days. Dead embryos were removed from wells when observed during the first 4 days of the study. On day 5, dead or “motion-dead” larvae were scored alongside living larvae.
At 5 dpf, pools were scored for their ability to improve the survival and touch-evoked escape behaviors of ryr1b homozygous mutants using the following numeric scoring system: 3=4-6 cm, fast (wild-type); 2=2-4 cm (moderate); 1=<2 cm, slow (ryr1b); 0=no movement (dead) (FIG. 2A). Survival, swimming, and combined endpoints of the primary screen were then examined for their ability to distinguish positive from negative controls. […] Taking into account both experimental replicates (n=40), hit pools contained at least 37 alive larvae on day 5 (i.e., 70-100% of the larvae assumed to be ryr1b mutants survived the duration of the study), and were selected for analysis in a secondary screen.
In the secondary screen, hit pools were separated and tested as 68 individual chemicals. Screening was performed precisely as described for the primary screen with few modifications. Embryos were raised in wells containing 750 μL 1×E3 medium, as opposed to 250 μL, although the final concentration of each compound was maintained at 2.0 μg/mL. […] Vitality scores, weighting survival and swimming ratios appropriately, were calculated as (#Dead*0)+(#ryr1b*1)+(#Moderate*2)+(#Wild-type*3). Theoretical maximum and minimum scores were 60 and 0, respectively, with an expected score of 50 in DMSO-treated controls. Secondary screen hits (P<0.05), considered “candidate” compounds, are currently being examined in dose-response and long-term studies.
The second tier of the chemical screen was performed two years following the primary screen, with a fully established ryr1b^+/− line. Healthier clutches tended to result in better survival of homozygous ryr1b mutants. Median mutant life spans more accurately adhered to the 7-15 day estimate previously published^30. Therefore, in the secondary screen, hit chemical pools were separated into individual compounds and each of 68 total compounds was examined for its ability to positively influence both ryr1b survival and motor function (referred to in combination as “vitality”). […] These included two anti-inflammatory agents (sulfasalazine and ketoprofen), two monoamine oxidase inhibitors (pargyline hydrochloride and tranylcypromine hydrochloride), and two ion channel modulators (metolazone and nimodipine).

Another experiment concerns ryr1b zebrafish. Description: Activity monitoring (Noldus Daniovision), spontaneous swimming at 20 dpf. The settings on record: long-term treatment. In kind it is in vivo, zebrafish (Danio rerio). How it is done:
In FIG. 10A, body angles of ryr1b mutants after 20 days of NIF treatment (10.0 μg/mL) are corrected and statistically indistinguishable from wild-type controls. […] Angles were measured by first drawing/extending straight lines between the eyes of the larva as well as along the midline of the trunk (shown by dotted red lines). The angle of intersection was determined using Adobe Photoshop CS3 software (WT-DMSO: 179.1±0.9°, n=6; WT-NIF: 176.8±1.1°, n=6; ryr1b-DMSO: 142.6±6.2°, n=11; ryr1b-NIF: 174.4±2.0°, n=4). Significance was determined by a one-way ANOVA (F=13.60, P<0.0001), followed by pairwise Tukey's HSD post hoc tests. […] Significance was determined by a one-way ANOVA (F=10.03, P=0.0009), followed by pairwise Tukey's HSD post hoc tests. […]
Zebrafish behavioral parameters were defined using the Noldus Daniovision activity monitoring system. […] Swimming behaviors were recorded over the entire 2.0-hour period with an infrared light source. […] Behavioral parameters recorded include frequency, mean velocity, total distance, and cumulative duration of movement, and reflect the average of all larvae in an experimental group.
Next, to determine if long-term NIF treatment affects ryr1b motor functions, spontaneous swimming behaviors of 20 dpf larvae were quantified using the Noldus Daniovision. […]

With `O=C(N/N=C/c1ccc([N+](=O)[O-])o1)c1ccc(O)cc1` [Nifuroxazide], the “Vitality Score” value in experiment [1] was 52.0. Further, the “distance travelled during 2.0-hour period” value with ryr1b zebrafish is “large and robust increase on the distance travelled by ryr1b zebrafish”.
